Assay results published in patent publication US11109593B2, “Isoxazolin-5-one derivative and herbicide containing same as active ingredient” (HOKKO CHEMICAL INDUSTRY CO., LTD., priority 2017, dated 2021).

Experiments:
Format in all cases: in vivo
Chenopodium album [1] = test: Test Example 3: herbicidal effect test by treatment of dry field farming soil (one day after seeding); details: 120 g/10a active ingredient, evaluated 14 days after treatment
How it was run: (§1)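 Herbicidal rate (%) = {1 − treated/untreated mean plant dry weight} × 100, scored 14 days after spraying, duplicate pots per concentration. Emulsified compound was water-diluted and applied to soil surface one day post-seeding at 120 g a.i. per 10 ares.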

Echinochloa crus-galli [2] = test: as above; details: 120 g/10a active ingredient, evaluated 14 days after treatment
How it was run: as §1

Amaranthus viridis [3] = test: as above; details: 120 g/10a active ingredient, evaluated 14 days after treatment
How it was run: as §1

southern crabgrass [4] = test: as above; details: 120 g/10a active ingredient, evaluated 14 days after treatment
How it was run: as §1

Echinochloa crus-galli [5] = test: Test Example 1: herbicidal effect test by treatment of rice paddy soil (immediately after seeding); details: 120 g/10a active ingredient, dry weight vs untreated area, 14 days after treatment
How it was run: (§2)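 Application occurs immediately after seeding, with diluted emulsion added to paddy water (about 3 cm deep) over puddled, fertilized soil at 120 g active ingredient per 10 ares. Herbicidal rate is calculated from mean dry weight against untreated controls 14 days later.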

Scirpus juncoides [6] = test: as above; details: 120 g/10a active ingredient, dry weight vs untreated area, 14 days after treatment
How it was run: as §2

[7] = tested on: broad leaf weeds (Lindernia pyxidaria and Monochoria vaginalis); test: as above; details: 120 g/10a active ingredient, dry weight vs untreated area, 14 days after treatment
How it was run: as §2

Echinochloa crus-galli [8] = test: Test Example 2: herbicidal effect test by treatment during growing period in paddy rice cultivation (seven days after seeding); details: 120 g/10a active ingredient, assessed 14 days after treatment, dry weight vs untreated area
How it was run: (§3)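 Emulsion formulations, diluted in water, applied dropwise to flooded pots (about 3 cm water) 7 days post-seeding at 120 g a.i./10 ares. Weeds sown 30 seeds each, 0–1 cm deep in puddled paddy soil; greenhouse. Readout: % reduction in plant dry weight vs untreated, day 14, duplicates.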

Scirpus juncoides [9] = test: as above; details: 120 g/10a active ingredient, assessed 14 days after treatment, dry weight vs untreated area
How it was run: as §3

[10] = tested on: broad leaf weeds (Lindernia pyxidaria and Monochoria vaginalis); test: as above; details: 120 g/10a active ingredient, assessed 14 days after treatment, dry weight vs untreated area
How it was run: as §3

Chenopodium album [11] = test: Test Example 4: herbicidal effect test by treatment of leave and stem in dry field farming (seven days after seeding); details: 120 g/10a active ingredient; emulsion sprayed seven days after seeding; evaluated 14 days after treatment
How it was run: (§4)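 Twenty seeds per species were mixed into the top 1 cm of alluvial soil in 36 cm^2 pots; emulsions were sprayed seven days after seeding at 100 L per 10 ares (120 g active ingredient per 10 ares). Herbicidal rate (%) = {1 − treated/untreated mean dry weight} × 100, 14 days after treatment, duplicate.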

Echinochloa crus-galli [12] = test: as above; details: 120 g/10a active ingredient; emulsion sprayed seven days after seeding; evaluated 14 days after treatment
How it was run: as §4

Amaranthus viridis [13] = test: as above; details: 120 g/10a active ingredient; emulsion sprayed seven days after seeding; evaluated 14 days after treatment
How it was run: as §4

southern crabgrass [14] = test: as above; details: 120 g/10a active ingredient; emulsion sprayed seven days after seeding; evaluated 14 days after treatment
How it was run: as §4

## CCC(CC)n1oc(=O)c(Cc2ccccc2NS(=O)(=O)C(F)(F)F)c1C [Compound 1-103]
Chenopodium album [1]
  herbicidal rate, Chenopodium album: 100%
Echinochloa crus-galli [2]
  herbicidal rate, Echinochloa crus-galli: 100%
Amaranthus viridis [3]
  herbicidal rate, Amaranthus viridis: 100%
Southern crabgrass [4]
  herbicidal rate, southern crabgrass: 100%
Echinochloa crus-galli [5]
  Herbicidal rate (%) Echinochloa crus-galli: 100%
Scirpus juncoides [6]
  Herbicidal rate (%) Scirpus juncoides: 90%
[7]
  Herbicidal rate (%) Lindernia pyxidaria: 80%
  Herbicidal rate (%) Monochoria vaginalis: 100%
Echinochloa crus-galli [8]
  Herbicidal rate (%) Echinochloa crus-galli: 90%
Scirpus juncoides [9]
  Herbicidal rate (%) Scirpus juncoides: 80%
[10]
  Herbicidal rate (%) Lindernia pyxidaria: 60%
  Herbicidal rate (%) Monochoria vaginalis: 80%
Chenopodium album [11]
  herbicidal effect (herbicidal rate), Chenopodium album: 40%
Echinochloa crus-galli [12]
  herbicidal effect (herbicidal rate), Echinochloa crus-galli: 90%
Amaranthus viridis [13]
  herbicidal effect (herbicidal rate), Amaranthus viridis: 90%
Southern crabgrass [14]
  herbicidal effect (herbicidal rate), southern crabgrass: 90%

## CCS(=O)(=O)N(c1ccccc1Cc1c(C)n(C(C)COC)oc1=O)S(=O)(=O)C(F)(F)F (centres unmarked) [Compound 1-915]
Chenopodium album [1]
  herbicidal rate, Chenopodium album: 90%
Echinochloa crus-galli [2]
  herbicidal rate, Echinochloa crus-galli: 90%
Amaranthus viridis [3]
  herbicidal rate, Amaranthus viridis: 90%
Southern crabgrass [4]
  herbicidal rate, southern crabgrass: 90%
Echinochloa crus-galli [5]
  Herbicidal rate (%) Echinochloa crus-galli: 90%
Scirpus juncoides [6]
  Herbicidal rate (%) Scirpus juncoides: 90%
[7]
  Herbicidal rate (%) Lindernia pyxidaria: 90%
  Herbicidal rate (%) Monochoria vaginalis: 90%
Echinochloa crus-galli [8]
  Herbicidal rate (%) Echinochloa crus-galli: 90%
Scirpus juncoides [9]
  Herbicidal rate (%) Scirpus juncoides: 90%
[10]
  Herbicidal rate (%) Lindernia pyxidaria: 90%
  Herbicidal rate (%) Monochoria vaginalis: 90%
Chenopodium album [11]
  herbicidal effect (herbicidal rate), Chenopodium album: 40%
Echinochloa crus-galli [12]
  herbicidal effect (herbicidal rate), Echinochloa crus-galli: 90%
Amaranthus viridis [13]
  herbicidal effect (herbicidal rate), Amaranthus viridis: 40%
Southern crabgrass [14]
  herbicidal effect (herbicidal rate), southern crabgrass: 90%

## Cc1c(Cc2cc(F)ccc2N(S(=O)(=O)C(F)(F)F)S(=O)(=O)C(F)(F)F)c(=O)on1CC(C)C [Compound 1-29]
Chenopodium album [1]
  herbicidal rate, Chenopodium album: 40%
Echinochloa crus-galli [2]
  herbicidal rate, Echinochloa crus-galli: 70%
Amaranthus viridis [3]
  herbicidal rate, Amaranthus viridis: 40%
Southern crabgrass [4]
  herbicidal rate, southern crabgrass: 70%
Echinochloa crus-galli [5]
  Herbicidal rate (%) Echinochloa crus-galli: 100%
Scirpus juncoides [6]
  Herbicidal rate (%) Scirpus juncoides: 90%
[7]
  Herbicidal rate (%) Lindernia pyxidaria: 90%
  Herbicidal rate (%) Monochoria vaginalis: 90%
Echinochloa crus-galli [8]
  Herbicidal rate (%) Echinochloa crus-galli: 100%
Scirpus juncoides [9]
  Herbicidal rate (%) Scirpus juncoides: 90%
[10]
  Herbicidal rate (%) Lindernia pyxidaria: 80%
  Herbicidal rate (%) Monochoria vaginalis: 90%
Chenopodium album [11]
  herbicidal effect (herbicidal rate), Chenopodium album: 0%
Echinochloa crus-galli [12]
  herbicidal effect (herbicidal rate), Echinochloa crus-galli: 60%
Amaranthus viridis [13]
  herbicidal effect (herbicidal rate), Amaranthus viridis: 60%
Southern crabgrass [14]
  herbicidal effect (herbicidal rate), southern crabgrass: 40%

## Cc1c(Cc2ccccc2NS(=O)(=O)C(F)(F)F)c(=O)on1CC(C)c1ccccc1 (centres unmarked) [Compound 1-219]
Chenopodium album [1]
  herbicidal rate, Chenopodium album: 40%
Echinochloa crus-galli [2]
  herbicidal rate, Echinochloa crus-galli: 90%
Amaranthus viridis [3]
  herbicidal rate, Amaranthus viridis: 90%
Southern crabgrass [4]
  herbicidal rate, southern crabgrass: 80%
Echinochloa crus-galli [5]
  Herbicidal rate (%) Echinochloa crus-galli: 100%
Scirpus juncoides [6]
  Herbicidal rate (%) Scirpus juncoides: 90%
[7]
  Herbicidal rate (%) Lindernia pyxidaria: 90%
  Herbicidal rate (%) Monochoria vaginalis: 80%
Echinochloa crus-galli [8]
  Herbicidal rate (%) Echinochloa crus-galli: 90%
Scirpus juncoides [9]
  Herbicidal rate (%) Scirpus juncoides: 90%
[10]
  Herbicidal rate (%) Lindernia pyxidaria: 40%
  Herbicidal rate (%) Monochoria vaginalis: 70%
Chenopodium album [11]
  herbicidal effect (herbicidal rate), Chenopodium album: 0%
Echinochloa crus-galli [12]
  herbicidal effect (herbicidal rate), Echinochloa crus-galli: 90%
Amaranthus viridis [13]
  herbicidal effect (herbicidal rate), Amaranthus viridis: 40%
Southern crabgrass [14]
  herbicidal effect (herbicidal rate), southern crabgrass: 60%

## CCC(=O)N(c1ccccc1Cc1c(C)n(CCSC)oc1=O)S(=O)(=O)C(F)(F)F [Compound 1-320]
Chenopodium album [1]
  herbicidal rate, Chenopodium album: 90%
Echinochloa crus-galli [2]
  herbicidal rate, Echinochloa crus-galli: 90%
Amaranthus viridis [3]
  herbicidal rate, Amaranthus viridis: 90%
Southern crabgrass [4]
  herbicidal rate, southern crabgrass: 90%
Echinochloa crus-galli [5]
  Herbicidal rate (%) Echinochloa crus-galli: 90%
Scirpus juncoides [6]
  Herbicidal rate (%) Scirpus juncoides: 90%
[7]
  Herbicidal rate (%) Lindernia pyxidaria: 90%
  Herbicidal rate (%) Monochoria vaginalis: 90%
Echinochloa crus-galli [8]
  Herbicidal rate (%) Echinochloa crus-galli: 90%
Scirpus juncoides [9]
  Herbicidal rate (%) Scirpus juncoides: 90%
[10]
  Herbicidal rate (%) Lindernia pyxidaria: 90%
  Herbicidal rate (%) Monochoria vaginalis: 90%
Chenopodium album [11]
  herbicidal effect (herbicidal rate), Chenopodium album: 40%
Echinochloa crus-galli [12]
  herbicidal effect (herbicidal rate), Echinochloa crus-galli: 90%
Amaranthus viridis [13]
  herbicidal effect (herbicidal rate), Amaranthus viridis: 40%
Southern crabgrass [14]
  herbicidal effect (herbicidal rate), southern crabgrass: 90%

## Cc1c(Cc2ccccc2NS(=O)(=O)C(F)(F)F)c(=O)on1C1CCCCC1 [Compound 1-142]
Chenopodium album [1]
  herbicidal rate, Chenopodium album: 90%
Echinochloa crus-galli [2]
  herbicidal rate, Echinochloa crus-galli: 100%
Amaranthus viridis [3]
  herbicidal rate, Amaranthus viridis: 70%
Southern crabgrass [4]
  herbicidal rate, southern crabgrass: 90%
Echinochloa crus-galli [5]
  Herbicidal rate (%) Echinochloa crus-galli: 100%
Scirpus juncoides [6]
  Herbicidal rate (%) Scirpus juncoides: 90%
[7]
  Herbicidal rate (%) Lindernia pyxidaria: 100%
  Herbicidal rate (%) Monochoria vaginalis: 90%
Echinochloa crus-galli [8]
  Herbicidal rate (%) Echinochloa crus-galli: 100%
Scirpus juncoides [9]
  Herbicidal rate (%) Scirpus juncoides: 90%
[10]
  Herbicidal rate (%) Lindernia pyxidaria: 90%
  Herbicidal rate (%) Monochoria vaginalis: 100%
Chenopodium album [11]
  herbicidal effect (herbicidal rate), Chenopodium album: 40%
Echinochloa crus-galli [12]
  herbicidal effect (herbicidal rate), Echinochloa crus-galli: 90%
Amaranthus viridis [13]
  herbicidal effect (herbicidal rate), Amaranthus viridis: 60%
Southern crabgrass [14]
  herbicidal effect (herbicidal rate), southern crabgrass: 80%

## Cc1c(Cc2cc(Cl)ccc2NS(=O)(=O)C(F)(F)F)c(=O)on1C(C)C [Compound 1-41]
Chenopodium album [1]
  herbicidal rate, Chenopodium album: 50%
Echinochloa crus-galli [2]
  herbicidal rate, Echinochloa crus-galli: 90%
Amaranthus viridis [3]
  herbicidal rate, Amaranthus viridis: 0%
Southern crabgrass [4]
  herbicidal rate, southern crabgrass: 90%
Echinochloa crus-galli [5]
  Herbicidal rate (%) Echinochloa crus-galli: 100%
Scirpus juncoides [6]
  Herbicidal rate (%) Scirpus juncoides: 100%
[7]
  Herbicidal rate (%) Lindernia pyxidaria: 100%
  Herbicidal rate (%) Monochoria vaginalis: 100%
Echinochloa crus-galli [8]
  Herbicidal rate (%) Echinochloa crus-galli: 90%
Scirpus juncoides [9]
  Herbicidal rate (%) Scirpus juncoides: 60%
[10]
  Herbicidal rate (%) Lindernia pyxidaria: 90%
  Herbicidal rate (%) Monochoria vaginalis: 80%
Chenopodium album [11]
  herbicidal effect (herbicidal rate), Chenopodium album: 90%
Echinochloa crus-galli [12]
  herbicidal effect (herbicidal rate), Echinochloa crus-galli: 90%
Amaranthus viridis [13]
  herbicidal effect (herbicidal rate), Amaranthus viridis: 60%
Southern crabgrass [14]
  herbicidal effect (herbicidal rate), southern crabgrass: 90%

## Cc1c(Cc2ccccc2N(C(=O)CC(C)C)S(=O)(=O)C(F)(F)F)c(=O)on1C(C)(C)C [Compound 1-351]
Chenopodium album [1]
  herbicidal rate, Chenopodium album: 90%
Echinochloa crus-galli [2]
  herbicidal rate, Echinochloa crus-galli: 90%
Amaranthus viridis [3]
  herbicidal rate, Amaranthus viridis: 90%
Southern crabgrass [4]
  herbicidal rate, southern crabgrass: 90%
Echinochloa crus-galli [5]
  Herbicidal rate (%) Echinochloa crus-galli: 90%
Scirpus juncoides [6]
  Herbicidal rate (%) Scirpus juncoides: 90%
[7]
  Herbicidal rate (%) Lindernia pyxidaria: 90%
  Herbicidal rate (%) Monochoria vaginalis: 90%
Echinochloa crus-galli [8]
  Herbicidal rate (%) Echinochloa crus-galli: 90%
Scirpus juncoides [9]
  Herbicidal rate (%) Scirpus juncoides: 90%
[10]
  Herbicidal rate (%) Lindernia pyxidaria: 90%
  Herbicidal rate (%) Monochoria vaginalis: 90%
Chenopodium album [11]
  herbicidal effect (herbicidal rate), Chenopodium album: 40%
Echinochloa crus-galli [12]
  herbicidal effect (herbicidal rate), Echinochloa crus-galli: 90%
Amaranthus viridis [13]
  herbicidal effect (herbicidal rate), Amaranthus viridis: 40%
Southern crabgrass [14]
  herbicidal effect (herbicidal rate), southern crabgrass: 90%
